Measurements taken from US20260240154A1, “GLOBODERA PALLIDA CONTROL AGENT” (National Agriculture and Food Research Organization, priority 2021, published 2026).

Test system: Globodera pallida eggs
Test: Hatching accelerating effect evaluation test for Globodera pallida (liquid immersion test)
Assay type: in vivo
Conditions: 1 mL of 2 ppm test reagent solution added to 1 mL egg suspension; 16° C.; about 2 weeks; two replicates
Method: A predetermined amount of compound (I) was dissolved in an aqueous solution containing 0.05% (v/v) of polyoxyethylene sorbitan monolaurate (Tween20) to prepare a 100 ppm solution of compound (I).
The 100 ppm solution of compound (I) was further diluted with a 0.05% (v/v) Tween20 aqueous solution to prepare a test reagent solution with a concentration of compound (I) of 2 ppm.
The cysts of Globodera pallida increased in a greenhouse before the previous year were isolated from the soil, immersed in distilled water and kept at 16° C. for about 2 weeks were crushed with a scalpel and the eggs were taken out to obtain an egg suspension. After preparing a density of approximately 600 eggs per mL, Tween 20 was added to a concentration of 0.05% (v/v). 1 mL of this egg suspension was put into a 13.5 mL screw cap glass vial (inner diameter: 2.1 cm, height: 4.8 cm), and 1 mL each of a test reagent solution with a concentration of compound (I) of 2 ppm was added. It was covered and kept at 16° C.
About 2 weeks later, 1 mL was taken out, and the number of hatching larvae and the number of eggs were counted under a stereomicroscope. Two replicates were installed for each compound, and the average hatching rate was calculated.

SMILES	Average hatching rate (%)
Cc1ccc(C)c(C2=CC(=O)OC2(C)C)c1 [Compound D-16]	66.5%
Cc1ccc(C2CC(=O)OC2(C)C)c(C)c1 [Compound D-2]	94.7%
CC1(C)NC(=O)CC1c1cc(F)c(F)c(F)c1 (stereo not drawn) [Compound 13, 5,5-dimethyl-4-(3,4,5-trifluoro-phenyl)-2-pyrrolidinone]	62.6%
Cc1cccc(C2CC(=O)NC2(C)C)c1 (stereo not drawn) [Compound 9, 5,5-dimethyl-4-(3-methylphenyl)-2-pyrrolidinone]	72.3%
CC1(C)NS(=O)(=O)CC1c1ccc(Br)cc1 (stereo not drawn) [Compound B-10]	82.7%
Cc1ccc(C2CC(=S)NC2(C)C)cc1 [Compound D-8]	91.8%
CC1(C)SC(=O)CC1c1ccccc1 (stereo not drawn) [Compound B-4]	96.3%
CC1(C)OC(=O)CC1c1ccc(F)cc1 (stereo not drawn) [Compound 19, 4-(4-fluorophenyl)-5,5-dimethyldihydrofuran-2(3H)-one]	84.6%
CC1(C)NC(=O)[C@H]2C[C@]21c1ccccc1 (stereo in doubt) [Compound C-1, 4,4-dimethyl-5-phenyl-3-azabicyclo[3.1.0]hexan-2-one]	94.0%
CC1(C)OC(=O)C=C1c1ccc(Cl)cc1 [Compound D-9]	50.1%
CC1(C)SC(=O)CC1c1ccc(Cl)cc1 (stereo not drawn) [Compound B-7]	96.6%
CC1(C)NC(=O)CC1c1ccc(C(F)(F)F)cc1 (stereo not drawn) [Compound 7, 5,5-dimethyl-4-(4-trifluoromethylphenyl)-2-pyrrolidinone]	86.6%
Cc1cc(C)cc(C2=CC(=O)OC2(C)C)c1 [Compound D-17]	55.4%
CC1(C)NS(=O)(=O)CC1c1ccccc1 (stereo not drawn) [Compound B-9]	69.5%
COc1ccc(C2CC(=O)NC2(C)C)cc1 (stereo not drawn) [Compound 6, 5,5-dimethyl-4-(4-methoxyphenyl)-2-pyrrolidinone]	38.0%
Cc1ccccc1C1CC(=O)OC1(C)C (stereo not drawn) [Compound 20, 5,5-dimethyl-4-(o-tolyl)dihydrofuran-2(3H)-one]	63.1%
CC(C)(C)c1ccc(C2CC(=O)OC2(C)C)cc1 [Compound D-6]	67.5%
Cc1cccc(C2=CC(=O)OC2(C)C)c1C [Compound D-14]	63.7%
Cc1ccccc1C1=CC(=O)OC1(C)C [Compound D-13]	60.1%
CC1(C)SC(=O)CC1c1ccc(Br)cc1 (stereo not drawn) [Compound B-5]	96.9%
Cc1ccc(C2CC(=O)NC2(C)C)c(C)c1 (stereo not drawn) [Compound 14, 5,5-dimethyl-4-(2,4-dimethyl-phenyl)-2-pyrrolidinone]	37.6%
CC1(C)SC(=O)CCC1c1ccccc1 (stereo not drawn) [Compound A-5]	92.6%
Cc1ccc(C2=CC(=O)NC2(C)C)c(C)c1 [Compound D-19]	95.7%
Cc1ccc(C)c(C2CC(=S)OC2(C)C)c1 (stereo not drawn) [Compound B-3]	21.2%
CC1(C)NC(=S)CC1c1ccccc1 (stereo not drawn) [Compound 16, 5,5-dimethyl-4-phenyl pyrrolidine-2-thione]	69.2%
Cc1ccc(C)c(C2CC(=O)NC2(C)C)c1 (stereo not drawn) [Compound 11, 5,5-dimethyl-4-(2,5-dimethyl-phenyl)-2-pyrrolidinone]	72.9%

SMILES	Average hatching rate (%)
Cc1ccc(C2CCC(=O)SC2(C)C)cc1 (stereo not drawn) [Compound A-7]	93.9%
CC1C(=O)NC(C)(C)C1c1ccccc1 (stereo not drawn) [Compound 15, 3,5,5-trimethyl-4-phenyl-2-pyrrolidinone]	77.3%
CC1(C)NC(=O)CCC1c1ccccc1 (stereo not drawn) [Compound A-1]	77.4%
Cc1ccccc1C1CC(=O)NC1(C)C (stereo not drawn) [Compound 10, 5,5-dimethyl-4-(2-methylphenyl)-2-pyrrolidinone]	69.2%
CC1(C)SC(=O)CCC1c1ccc(Cl)cc1 (stereo not drawn) [Compound A-6, 5-(4-chlorophenyl)-6,6-dimethyl tetrahydro-2H-thiopyran-2-one]	93.6%
CC1(C)NC(=O)CC1c1ccc(Cl)c(Cl)c1 [Compound D-7]	95.2%
COC(=O)c1ccc(C2CCC(=O)NC2(C)C)cc1 (stereo not drawn) [Compound A-4]	68.8%
CC1(C)OC(=O)CC1c1ccccc1 (stereo not drawn) [Compound 17, 5,5-dimethyl-4-phenyldihydrofuran-2(3H)-one]	58.6%
CC1(C)OC(=O)C=C1c1ccc2ccccc2c1 [Compound D-11]	59.0%
CC1(C)NC(=O)CC1c1ccc(F)cc1 (stereo not drawn) [Compound 8, 5,5-dimethyl-4-(4-fluorophenyl)-2-pyrrolidinone]	94.1%
Cc1ccc(C2CC(=O)OC2(C)C)cc1C [Compound D-3]	58.8%
CC1(C)CC(=O)CC1c1ccccc1 (stereo not drawn) [Compound 21, 3,3-dimethyl-4-phenyl-cyclopentanone]	76.6%
CC1(C)OC(=O)C=C1c1ccc(-c2ccc(Cl)cc2)cc1 [Compound D-12]	52.0%
CC1(C)OC(=S)CC1c1ccccc1 (stereo not drawn) [Compound B-1]	70.4%
Cc1ccccc1C1=CC(=O)NC1(C)C [Compound D-18]	58.8%
CC1(C)OC(=O)C=C1c1cccc2ccccc12 [Compound D-10]	36.4%
Cc1cc(C)cc(C2CC(=O)OC2(C)C)c1 [Compound D-4]	40.1%
CC1(C)NC(=O)CCC1c1ccc(Br)cc1 (stereo not drawn) [Compound A-2]	97.4%
Cc1ccc(C2CC(=O)SC2(C)C)cc1 (stereo not drawn) [Compound B-6, 5,5-dimethyl-4-(p-tolyl)dihydrothiophene-2 (3H)-one]	97.1%
Cc1cccc(C2CC(=O)OC2(C)C)c1C [Compound D-1]	65.6%
CCc1ccc(C2CC(=O)OC2(C)C)cc1 [Compound D-5]	56.6%
Cc1ccc(C)c(C2CC(=O)SC2(C)C)c1 (stereo not drawn) [Compound B-8]	51.2%
CC1(C)NC(=O)CC1c1ccccc1 (stereo not drawn) [Compound 1, 5,5-dimethyl-4-phenyl-2-pyrrolidinone]	83.0%
CC1(C)NS(=O)(=O)CC1c1ccc(Cl)cc1 (stereo not drawn) [Compound B-12, 4-(4-chlorophenyl)-3,3-dimethylisothiazolidine-1,1-dioxide]	93.0%
Cc1ccc(C2CC(=S)OC2(C)C)cc1 (stereo not drawn) [Compound B-2, 5,5-dimethyl-4-(p-tolyl)dihydrofuran-2 (3H)-thione]	86.6%
Cc1ccc(C2CS(=O)(=O)NC2(C)C)cc1 (stereo not drawn) [Compound B-11]	80.2%

Same assay, conditions: 1 ppm; optically active compounds

SMILES	Average hatching rate at 1 ppm (%)
Cc1ccc(C2CC(=O)NC2(C)C)cc1 (single isomer, unassigned; (+)) [2 (+), (+)-5,5-dimethyl-4-(4-methylphenyl)-2-pyrrolidinone]	63.6%
Cc1ccc(C2CC(=O)NC2(C)C)cc1 (single isomer, unassigned; (-)) [Compound 2 (−), (−)-5,5-dimethyl-4-(4-methylphenyl)-2-pyrrolidinone]	91.8%
CC1(C)NS(=O)(=O)CC1c1ccc(Cl)cc1 (single isomer, unassigned; (+)) [B-12 (+), (+)-4-(4-chlorophenyl)-3,3-dimethylisothiazolidine-1,1-dioxide]	95.2%
CC1(C)NC(=O)CC1c1ccc(Cl)cc1 (single isomer, unassigned; (+)) [3 (+), (+)-5,5-dimethyl-4-(4-chlorophenyl)-2-pyrrolidinone]	93.2%
CC1(C)NC(=O)CC1c1ccc(Cl)cc1 (single isomer, unassigned) [3 (−), 5,5-dimethyl-4-(4-chlorophenyl)-2-pyrrolidinone]	92.0%
CC1(C)NC(=O)CC1c1ccccc1 (single isomer, unassigned; (+)) [1 (+), (+)-5,5-dimethyl-4-phenyl-2-pyrrolidinone]	37.8%
CC1(C)NS(=O)(=O)CC1c1ccc(Cl)cc1 (single isomer, unassigned) [B-12 (−), 4-(4-chlorophenyl)-3,3-dimethylisothiazolidine-1,1-dioxide]	94.6%
CC1(C)NC(=O)CC1c1ccccc1 (single isomer, unassigned) [1 (−), 5,5-dimethyl-4-phenyl-2-pyrrolidinone]	87.7%
